Patent publication US20220204491A1, “FXR (NR1H4) MODULATING COMPOUNDS” (Gilead Sciences, Inc., priority 2019, published 2022)

Molecular target: T1, human UGT1A1 (Homo sapiens, UniProt P22309)
T1 construct: purchased
T1 sequence (P22309 26-533): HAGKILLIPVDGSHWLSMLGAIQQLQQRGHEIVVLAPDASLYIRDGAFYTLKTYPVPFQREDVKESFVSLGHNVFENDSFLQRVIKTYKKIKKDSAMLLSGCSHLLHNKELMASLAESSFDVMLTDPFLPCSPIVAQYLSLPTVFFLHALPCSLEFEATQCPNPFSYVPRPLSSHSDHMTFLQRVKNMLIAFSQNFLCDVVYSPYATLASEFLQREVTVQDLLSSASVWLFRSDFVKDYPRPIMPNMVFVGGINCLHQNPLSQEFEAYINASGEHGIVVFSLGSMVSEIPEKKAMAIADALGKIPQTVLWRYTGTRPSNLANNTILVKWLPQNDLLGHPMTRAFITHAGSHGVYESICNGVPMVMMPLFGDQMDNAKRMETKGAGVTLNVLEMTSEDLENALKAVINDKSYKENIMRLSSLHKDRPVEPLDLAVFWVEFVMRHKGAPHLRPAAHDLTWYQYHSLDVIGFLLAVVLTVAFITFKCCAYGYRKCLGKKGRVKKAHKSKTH
Assay: UGT1A1 inhibition (estradiol 3-glucuronide formation, Supersomes)
Type: in vitro ADME
Method: The compound of Formula (I) (Example 1) was tested for inhibition of UGT1A1 and was compared against Comparative Example 1. To perform the assay, sample compound was incubated with human UGT1A1 expressed Supersomes™ (0.25 mg/mL), alamethicin (25 μg/mg) and UDPGA (5 mM) in the presence of probe substrate estradiol (10 μM) for 30 mins at 37° C. A selective UGT1A1 inhibitor, atazanavir, was screened alongside the test compounds as a positive control. The reactions were terminated by quenching an aliquot into two volumes of methanol. The samples were centrifuged at 2500 rpm for 30 mins at 4° C., and aliquots of the supernatant were diluted with formic acid in deionised water (final formic acid concentration 0.1%) and internal standard. Cyprotex generic LC-MS/MS conditions were used to monitor estradiol 3-glucuronide formation. A decrease in the formation of the metabolite compared to vehicle control is used to calculate an IC50 value.

**Q.** `O=C(O)c1ccc(N2CC(O)(c3ccc(OCc4c(-c5c(Cl)cc(F)cc5Cl)noc4C4CC4)cc3Cl)C2)nc1` [Example 1, 6-(3-(2-chloro-4-((5-cyclopropyl-3-(2,6-dichloro-4-fluorophenyl)isoxazol-4-yl)methoxy)phenyl)-3-hydroxyazetidin-1-yl)nicotinic acid] was tested. Which “UGT1A1 inhibition, comparison of the compounds” value (Example 1 compared against Comparative Example 1) did it give?
**A.** The value was “most potent UGT1A1 inhibition of the compounds compared”.

**Q.** And the IC50 (probe substrate estradiol 10 μM, 30 mins at 37° C.)?
**A.** The IC50 was 440 nM.
